Reference: publication PMC9886550, “Molecular mechanism of topoisomerase poisoning by the peptide antibiotic albicidin” (Nature Catalysis, 2023)
“And” between values parts separate entries of the source, which are not always exact repeats. Identical values can stand only once.

Tests used:
Assay type in all cases: biochemical
E. coli gyrase GyrA^A67Q = target: T1, E. coli gyrase GyrA^A67Q (Escherichia coli, UniProt P0AES4+P0AES6, A67Q); assay: DNA gyrase cleavage assay (CC50, % cleaved DNA); details: for % maximal cleavage: GyrAA67Q, average of 3 independent assays; for EC50: GyrA^A67Q, mean ± s.d. of triplicate; for % cleaved DNA Average: average of replicates
T1 construct: alternative cryo-EM approach involving full-length E. coli gyrase; 10-His (cleaved yes); Twin-Strep (cleaved yes); made in house
Procedure: (§1) For DNA gyrase supercoiling assays to characterize gyrase mutants, 15 µl reactions were set up containing 250 ng of relaxed DNA, E. coli gyrase supercoiling buffer (35 mM Tris–Cl pH 7.5, 24 mM KCl, 4 mM MgCl2, 2 mM DTT, 1.8 mM spermidine, 1 mM ATP, 6.0% (w/v) glycerol, and 0.1 mg ml^−1 BSA), gyrase subunits and inhibitors. Concentrations of enzyme and inhibitor are stated in the figure legends. Inhibitors were diluted in the following way to reduce the chance of precipitation: stock compound in 100% DMSO was diluted to 5 mM in 100% DMSO. This compound solution was diluted to 1 mM by stepwise addition of 1 µl of 50% DMSO with thorough mixing via pipetting after each addition. All subsequent dilutions up to 100 µM were performed in the same way using H2O. After this point, compounds were stable and could be diluted in the normal way. Reactions were incubated at 37 °C for 30 min before stopping with 15 µl chloroform:isoamyl alcohol (24:1 v/v) and 15 µl of STEB (40% (w/v) sucrose, 100 mM Tris–Cl pH 8, 10 mM EDTA, 0.5 mg ml^−1 bromophenol blue).
(§2) Cleavage assays were set up in the same way as supercoiling assays with some modifications. The concentration of enzyme was increased 4-fold relative to the supercoiling assay and reactions were incubated for 1 h before addition of 0.2% SDS and proteinase K (0.2 mg ml^−1) and further incubation at 37 °C for 30 min to trap cleavage complexes. Reactions were stopped in the same way as supercoiling assays.
(§3) Results were visualized by agarose gel electrophoresis: 1% agarose Tris-acetate-EDTA (TAE) gels were run without ethidium bromide (supercoiling) or with 10 µg ml^−1 ethidium bromide (cleavage) at 8 V cm^−1.
(§4) DNA cleavage gels were analysed using densitometry (ImageJ). Experiments were carried out in triplicate and expressed as mean ± s.d. Curves were fitted using OriginPro 2021 (Origin Lab) according to a modified Hill equation:1 y=cI+(cF−cI)[…]/(k^n+x^n) where y is the percentage of cleaved DNA, cI is the initial cleavage, cF is the final cleavage, k is the CC50 (the concentration of inhibitor that results in cleavage of 50% of DNA), n is a slope factor and x is the inhibitor concentration.

[1] = target: T2, E. coli gyrase GyrB^K447W (Escherichia coli, UniProt P0AES4+P0AES6, K447W); assay: DNA gyrase cleavage assay (CC50, % cleaved DNA); details: for % maximal cleavage: GyrBK447W, average of 3 independent assays
T2 construct: alternative cryo-EM approach involving full-length E. coli gyrase; 10-His (cleaved yes); Twin-Strep (cleaved yes); made in house
Procedure: as §1, §2, §3, §4

E. coli gyrase GyrA^S83L = target: T3, E. coli gyrase GyrA^S83L (Escherichia coli, UniProt P0AES4+P0AES6, S83L); assay: DNA gyrase cleavage assay (CC50, % cleaved DNA); details: for % maximal cleavage: GyrAS83L, average of 3 independent assays; for EC50: GyrA^S83L, mean ± s.d. of triplicate; for % cleaved DNA Average: average of replicates
T3 construct: alternative cryo-EM approach involving full-length E. coli gyrase; 10-His (cleaved yes); Twin-Strep (cleaved yes); made in house
Procedure: as §1, §2, §3, §4

E. coli gyrase GyrA^V70A = target: T4, E. coli gyrase GyrA^V70A (Escherichia coli, UniProt P0AES4+P0AES6, V70A); assay: DNA gyrase cleavage assay (CC50, % cleaved DNA); details: for % maximal cleavage: GyrAV70A, average of 3 independent assays; for EC50: GyrA^V70A; for % cleaved DNA Average: average of replicates
T4 construct: alternative cryo-EM approach involving full-length E. coli gyrase; 10-His (cleaved yes); Twin-Strep (cleaved yes); made in house
Procedure: as §1, §2, §3, §4

E. coli Topo IV = E. coli Topo IV (Escherichia coli, UniProt P0AFI2+P20083); assay: E. coli Topo IV relaxation assay; details: tested 0.1, 1, 10, 100 µM
Chain of E. coli Topo IV (P0AFI2 whole entry): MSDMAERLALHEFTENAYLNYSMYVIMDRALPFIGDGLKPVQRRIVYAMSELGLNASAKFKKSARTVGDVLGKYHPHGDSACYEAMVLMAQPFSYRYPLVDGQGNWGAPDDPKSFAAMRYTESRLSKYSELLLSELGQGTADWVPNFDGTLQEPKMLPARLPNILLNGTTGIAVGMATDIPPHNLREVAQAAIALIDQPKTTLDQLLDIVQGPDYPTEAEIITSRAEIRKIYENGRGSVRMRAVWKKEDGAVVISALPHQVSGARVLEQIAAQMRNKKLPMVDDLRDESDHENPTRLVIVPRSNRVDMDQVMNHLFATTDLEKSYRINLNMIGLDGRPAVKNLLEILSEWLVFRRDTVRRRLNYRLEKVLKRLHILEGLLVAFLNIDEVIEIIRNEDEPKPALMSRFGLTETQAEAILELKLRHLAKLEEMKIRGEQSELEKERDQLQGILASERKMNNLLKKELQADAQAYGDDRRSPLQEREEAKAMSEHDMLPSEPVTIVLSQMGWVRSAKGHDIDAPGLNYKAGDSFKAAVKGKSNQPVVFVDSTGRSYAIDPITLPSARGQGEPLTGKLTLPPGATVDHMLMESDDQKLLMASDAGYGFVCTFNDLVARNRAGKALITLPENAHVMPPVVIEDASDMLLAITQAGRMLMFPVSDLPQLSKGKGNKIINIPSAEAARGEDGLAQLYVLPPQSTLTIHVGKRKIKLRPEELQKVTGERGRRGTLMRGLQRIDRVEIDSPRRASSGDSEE
Chain of E. coli Topo IV (P20083 whole entry): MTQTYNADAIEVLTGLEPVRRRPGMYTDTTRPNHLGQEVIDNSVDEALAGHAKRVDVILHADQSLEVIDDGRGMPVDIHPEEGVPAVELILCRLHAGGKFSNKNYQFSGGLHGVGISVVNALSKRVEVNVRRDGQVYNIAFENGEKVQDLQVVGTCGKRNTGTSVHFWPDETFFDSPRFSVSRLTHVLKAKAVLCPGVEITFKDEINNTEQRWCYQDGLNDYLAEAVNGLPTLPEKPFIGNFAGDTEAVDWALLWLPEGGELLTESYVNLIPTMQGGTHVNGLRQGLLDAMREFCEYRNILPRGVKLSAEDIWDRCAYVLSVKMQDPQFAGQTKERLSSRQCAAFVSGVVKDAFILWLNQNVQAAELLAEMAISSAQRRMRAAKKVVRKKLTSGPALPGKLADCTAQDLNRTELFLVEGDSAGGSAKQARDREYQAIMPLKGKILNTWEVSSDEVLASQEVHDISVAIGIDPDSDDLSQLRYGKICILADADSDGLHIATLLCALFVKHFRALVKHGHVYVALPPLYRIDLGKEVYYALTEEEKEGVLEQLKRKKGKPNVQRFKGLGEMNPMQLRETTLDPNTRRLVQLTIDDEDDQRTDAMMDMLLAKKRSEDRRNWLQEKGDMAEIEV
Procedure: E. coli Topo IV relaxation assays were set up in the same way as supercoiling assays with some modifications. The substrate was negatively supercoiled DNA, E. coli Topo IV relaxation buffer (50 mM K-HEPES pH 7.6, 100 mM potassium glutamate, 10 mM magnesium acetate, 10 mM DTT, 1 mM ATP and 0.05 mg ml^−1 BSA) and reactions were incubated for 1 h. Reactions were stopped in the same way as supercoiling assays.
as §3
Supplementary Figure 11. Activity of albicidin and Albi-1/2/3 on E. coli topoisomerase IV. a. Plasmid relaxation activity of E. coli topo IV in the presence of albicidin, Albi-1, Albi-2 and Albi-3. First lane: negatively supercoiled pBR322; second lane: innate relaxation activity of E. coli topo IV (12.5 nM); third lane: effect of 20 µM CFX; subsequent lanes: effect of increasing compound concentration (0.1, 1, 10, 100 […]
higher concentration. b. Cleavage activity of E. coli topo IV in the presence of albicidin, Albi-1, Albi-2 and Albi-3. First lane: negatively supercoiled pBR322; second lane: innate cleavage activity of E. coli topo IV (15 nM); third lane: effect of 20 µM CFX; subsequent lanes: effect of increasing compound concentration (0.1, 1, 10, 100 µM). […]
concentration. All experiments were carried out in triplicates and representative gels […]
(1 picture or pasted object on this page, not shown here)

E. coli gyrase GyrA^D72N = target: T5, E. coli gyrase GyrA^D72N (Escherichia coli, UniProt P0AES4+P0AES6); details: in words
T5 construct: alternative cryo-EM approach involving full-length E. coli gyrase; 10-His (cleaved yes); Twin-Strep (cleaved yes); made in house
Procedure: as §1
as §2, with “Reactions were stopped in the same way as supercoiling assays.” left out

[2] = target: T6, E. coli gyrase GyrA^M120A (Escherichia coli, UniProt P0AES4+P0AES6, M120A); assay: DNA gyrase cleavage assay (CC50, % cleaved DNA); details: for % cleaved DNA Average: average of replicates
T6 construct: alternative cryo-EM approach involving full-length E. coli gyrase; 10-His (cleaved yes); Twin-Strep (cleaved yes); made in house
Procedure: as §1, §2, §3, §4

## COc1c(NC(=O)c2ccc(NC(=O)c3ccc(NC(=O)[C@H](Cc4c[nH]nn4)NC(=O)c4ccc(NC(=O)c5ccc6nc(C)ccc6c5)cc4)cn3)c(OC)c2O)ccc(C(=O)O)c1O [Albi-3]
E. coli gyrase GyrA^A67Q
  % maximal cleavage: 78±6%
  EC50: 328 ± 19 nM
[1]
  % maximal cleavage: 69±2% and 69%
E. coli gyrase GyrA^S83L
  % maximal cleavage: 85±7%
  EC50: 16 ± 4 nM
E. coli gyrase GyrA^V70A
  % maximal cleavage: 63±2%
E. coli gyrase GyrA^V70A; mean ± s.d. of triplicate
  EC50: 36 ± 8.6 nM
E. coli Topo IV
  concentration required for full inhibition of Topo IV relaxation activity: 10 µM

## COc1c(NC(=O)c2ccc(NC(=O)c3ccc(NC(=O)[C@H](CC#N)NC(=O)c4ccc(NC(=O)/C(C)=C/c5ccc(O)cc5)cc4)cc3)c(OC)c2O)ccc(C(=O)O)c1O [Albicidin]
E. coli gyrase GyrA^D72N
  resistance of the variant judged by the CC50: did not show increased resistance
[2]; GyrAM120A, average of 3 independent assays
  % maximal cleavage: 72±3%
[2]; GyrA^M120A, mean ± s.d. of triplicate
  EC50: 50 ± 11 nM
[2]; albicidin 0.0005 µM
  % cleaved DNA Average: 4.819%
[2]; albicidin 0.001 µM
  % cleaved DNA Average: 6.609%
[2]; albicidin 0.0025 µM
  % cleaved DNA Average: 6.667%
[2]; albicidin 0.005 µM
  % cleaved DNA Average: 6.183%
[2]; albicidin 0.01 µM
  % cleaved DNA Average: 19.8754%
[2]; albicidin 0.025 µM
  % cleaved DNA Average: 25.7528%
[2]; albicidin 0.05 µM
  % cleaved DNA Average: 41.0477%
[2]; albicidin 0.1 µM
  % cleaved DNA Average: 46.9644%
[2]; albicidin 0.5 µM
  % cleaved DNA Average: 60.6731%
[2]; albicidin 1 µM
  % cleaved DNA Average: 72.349%
E. coli gyrase GyrA^A67Q; 1 h
  increase in CC50: more than 10 fold
E. coli gyrase GyrA^A67Q
  % maximal cleavage: 83±1%
  EC50: 610 ± 124 nM
E. coli gyrase GyrA^A67Q; albicidin 0.01 µM
  % cleaved DNA Average: 3.538%
E. coli gyrase GyrA^A67Q; albicidin 0.025 µM
  % cleaved DNA Average: 4.787%
E. coli gyrase GyrA^A67Q; albicidin 0.05 µM
  % cleaved DNA Average: 6.475%
E. coli gyrase GyrA^A67Q; albicidin 0.1 µM
  % cleaved DNA Average: 6.201%
E. coli gyrase GyrA^A67Q; albicidin 0.25 µM
  % cleaved DNA Average: 17.9877%
E. coli gyrase GyrA^A67Q; albicidin 0.5 µM
  % cleaved DNA Average: 34.7807%
E. coli gyrase GyrA^A67Q; albicidin 1 µM
  % cleaved DNA Average: 60.5747%
E. coli gyrase GyrA^A67Q; albicidin 5 µM
  % cleaved DNA Average: 76.5607%
E. coli gyrase GyrA^A67Q; albicidin 10 µM
  % cleaved DNA Average: 82.9213%
E. coli gyrase GyrA^A67Q; albicidin 25 µM
  % cleaved DNA Average: 77.2008%
E. coli gyrase GyrA^A67Q; albicidin 50 µM
  % cleaved DNA Average: 74.453%
[1]
  % maximal cleavage: 27±2%
[1]; GyrB^K447W vs WT gyrase
  decrease of the maximal cleavage: 3 fold
[1]; GyrB^K447W vs WT gyrase, 60 min
  increase in CC50: 10 fold
[1]; GyrB^K447W, mean ± s.d. of triplicate
  EC50: 452 ± 108 nM
E. coli gyrase GyrA^S83L; 1 h
  increase in CC50: 3 fold
E. coli gyrase GyrA^S83L
  % maximal cleavage: 68±5%
  EC50: 129 ± 43 nM
E. coli gyrase GyrA^S83L; albicidin 0.0025 µM
  % cleaved DNA Average: 2.652%
E. coli gyrase GyrA^S83L; albicidin 0.005 µM
  % cleaved DNA Average: 2.693%
E. coli gyrase GyrA^S83L; albicidin 0.01 µM
  % cleaved DNA Average: 2.768%
E. coli gyrase GyrA^S83L; albicidin 0.025 µM
  % cleaved DNA Average: 5.278%
E. coli gyrase GyrA^S83L; albicidin 0.05 µM
  % cleaved DNA Average: 12.476%
E. coli gyrase GyrA^S83L; albicidin 0.1 µM
  % cleaved DNA Average: 26.0782%
E. coli gyrase GyrA^S83L; albicidin 0.5 µM
  % cleaved DNA Average: 63.6873%
E. coli gyrase GyrA^S83L; albicidin 1 µM
  % cleaved DNA Average: 64.6552%
E. coli gyrase GyrA^S83L; albicidin 5 µM
  % cleaved DNA Average: 67.9433%
E. coli gyrase GyrA^V70A; 1 h
  increase in CC50: > 25 fold
E. coli gyrase GyrA^V70A
  % maximal cleavage: 80±2%
E. coli gyrase GyrA^V70A; cell prints its own unit
  EC50: 1240 nM
E. coli gyrase GyrA^V70A; albicidin 0.025 µM
  % cleaved DNA Average: 3.14%
E. coli gyrase GyrA^V70A; albicidin 0.05 µM
  % cleaved DNA Average: 4.791%
E. coli gyrase GyrA^V70A; albicidin 0.1 µM
  % cleaved DNA Average: 4.574%
E. coli gyrase GyrA^V70A; albicidin 0.25 µM
  % cleaved DNA Average: 12.5575%
E. coli gyrase GyrA^V70A; albicidin 0.5 µM
  % cleaved DNA Average: 14.0393%
E. coli gyrase GyrA^V70A; albicidin 1 µM
  % cleaved DNA Average: 46.9741%
E. coli gyrase GyrA^V70A; albicidin 5 µM
  % cleaved DNA Average: 65.2533%
E. coli gyrase GyrA^V70A; albicidin 10 µM
  % cleaved DNA Average: 79.6585%
E. coli gyrase GyrA^V70A; albicidin 50 µM
  % cleaved DNA Average: 77.0866%
E. coli Topo IV
  concentration required for full inhibition of Topo IV relaxation activity: 100 µM
